Assay: Stability in Human Liver Microsomes
Assay type: in vitro ADME
Details: pooled human liver microsomes 0.5 mg/mL protein, 1 mM NADPH, 37° C., N=1; for half-life: both sexes
Experimental: The liver microsomes stability of compounds of Examples 1-4 was compared with that of TOVOK, and the compound of Example 5 with CUDC-101.
The metabolic stability of compounds of the invention was tested using pooled liver microsomes prepared from mixed-gender humans, with 1 mM NADPH. The samples were analyzed using an LTQ-Orbitrap XL mass spectrometer. HRMS was used to determine the peak area response ratio (peak area corresponding to test compound or control divided by that of an analytical internal standard) without running a standard curve. HRMS scan was performed in an appropriate m/z range in order to detect all plausible metabolites
The assay was run with a single incubation (N=1). Incubated test compounds at 37° C. in buffer containing 0.5 mg/mL microsomal protein. Initiated the reaction by adding cofactors, sampling at 0, 10, 20, 30, and 60 minutes, Incubated positive control (5 μM testosterone) in parallel and sampling at 0, 10, and 30 minutes.
The control compound testosterone was run in parallel to verify the enzymatic activity of the microsomes. After the final time point, fluorimetry was used to confirm the addition of NADPH to the reaction mixture. T1/2 of control met the internal acceptance criteria.
• Liquid Chromatography • Column: Thermo BDS Hypersil C18 30×2.0 mm, 3 μm, with guard column • M.P. Buffer: 25 mM ammonium formate buffer, pH 3.5 • Aqueous Reservoir (A): 90% water, 10% buffer • Organic Reservoir (B): 90% acetonitrile, 10% buffer • Flow Rate: 300 μL/minute • Gradient Program:
• Total Run Time: 3.5 minutes • Autosampler: 10 μL Injection Volume • Autosampler Wash: water/methanol/2-propanol: 1/1/1; with 0.2% formic acid • Mass Spectrometer • Instrument: PE SCIEX API 3000 • Interface: Turbo Ionspray • Mode: Multiple Reaction Monitoring • Method: 3.5 minute duration

| half-life [h] | Structure (SMILES) | Percentage remaining 0 min [%] | Percentage remaining 10 min [%] | Percentage remaining 20 min [%] | Percentage remaining 30 min [%] | Percentage remaining 60 min [%] | Half life [h] |
| --- | --- | --- | --- | --- | --- | --- | --- |
| 0.333 | C#Cc1cccc(Nc2ncnc3cc(OC)c(OCCCCCCC(=O)NO)cc23)c1 [CUDC-101, reference compound] | 100 | 74 | 48 | 35 | 14 |  |
|  | [2H]C([2H])([2H])N(C/C=C/C(=O)Nc1cc2c(Nc3ccc(F)c(Cl)c3)ncnc2cc1O[C@H]1CCOC1)C([2H])([2H])[2H] [Example 1, (S,E)-N-(4-(3-chloro-4-fluorophenylamino)-7-(tetrahydrofuran-3-yloxy)quinazolin-6-yl)-4-(D6-dimethylamino)but-2-enamide] | 100 | 97 | 90 | 85 | 75 | >1 |
|  | [2H]C([2H])([2H])N(C/C=C/C(=O)Nc1cc2c(Nc3cccc(C#C)c3)ncnc2cc1O[C@H]1CCOC1)C([2H])([2H])[2H] [Example 2, (S,E)-4-(D6-dimethylamino)-N-(4-(3-ethynylphenylamino)-7-(tetrahydrofuran-3-yloxy)quinazolin-6-yl)but-2-enamide] | 100 | 95 | 87 | 80 | 67 | >1 |
|  | [2H]C1(Oc2cc3ncnc(Nc4ccc(F)c(Cl)c4)c3cc2NC(=O)/C=C/CN(C)C)CCOC1 (stereo not drawn) [Example 3, (E)-N-(4-(3-chloro-4-fluorophenylamino)-7-((3-D)-tetrahydrofuran-3-yloxy)quinazolin-6-yl)-4-(dimethylamino)but-2-enamide] | 100 | 97 | 89 | 84 | 73 | >1 |
|  | [2H]C1(Oc2cc3ncnc(Nc4cccc(C#C)c4)c3cc2NC(=O)/C=C/CN(C)C)CCOC1 [Example 4, (E)-4-(dimethylamino)-N-(4-(3-ethynylphenylamino)-7-(3-D-tetrahydrofuran-3-yloxy)quinazolin-6-yl)but-2-enamide] | 100 | 94 | 87 | 79 | 70 | >1 |
| 0.467 | [2H]C([2H])([2H])Oc1cc2ncnc(Nc3cccc(C#C)c3)c2cc1OCCCCCCC(=O)NO [Example 5, 7-(4-(3-ethynylphenylamino)-7-(D3-methoxy)quinazolin-6-yloxy)-N-hydroxyheptanamide] | 100 | 85 | 68 | 48 | 25 |  |
| > 1 | CN(C)C/C=C/C(=O)Nc1cc2c(Nc3ccc(F)c(Cl)c3)ncnc2cc1O[C@H]1CCOC1 [TOVOK, reference compound] | 100 | 95 | 85 | 75 | 60 |  |
